From ChEMBL document CHEMBL3885861, “Open TG-GATES”

Species on record: Rattus norvegicus
Test: Open TG-GATES - Regimen: Single
Assay type: toxicity, organism-based, Sprague-Dawley
Design: regimen Single, gender Male, age 6 weeks
Details: in vivo, po, route gavage; for KIDNEY_L / KIDNEY_R / KIDNEY_TOTAL: tissue Kidney; for LIVER: tissue Liver; for ALT / AST / BUN / CRE / DBIL / GLC / IP / K / PL / RALB / TBIL / TC / TG / TP / gamma-GTP / ALP: tissue Plasma
[1] = 0 mg/kg, 3 h, tissue Blood, dose level Control
[2] = 0 mg/kg, 3 h, dose level Control
[3] = 0 mg/kg, 6 h, tissue Blood, dose level Control
[4] = 0 mg/kg, 6 h, dose level Control
[5] = 0 mg/kg, 9 h, tissue Blood, dose level Control
[6] = 0 mg/kg, 9 h, dose level Control
[7] = 0 mg/kg, 24 h, tissue Blood, dose level Control
[8] = 0 mg/kg, 24 h, dose level Control
[9] = 10 mg/kg, 3 h, tissue Blood, dose level Low
[10] = 10 mg/kg, 6 h, tissue Blood, dose level Low
[11] = 10 mg/kg, 9 h, tissue Blood, dose level Low
[12] = 10 mg/kg, 24 h, tissue Blood, dose level Low

CC(C)OC(=O)C(C)(C)Oc1ccc(C(=O)c2ccc(Cl)cc2)cc1 [FENOFIBRATE]
Bas [1]: 0.4%
Eos [1]: 0.8%
Fbg [1]: 289.4 mg/dL
Ht [1]: 39.8%
MCHC [1]: 32.5%
Mono [1]: 4%
RBC [1]: 616.8 x10_4/ul
Ret [1]: 9%
KIDNEY_L [2]: 0.8 g
KIDNEY_R [2]: 0.8 g
KIDNEY_TOTAL [2]: 1.5 g
LIVER [2]: 7.9 g
ALT [2]: 48.4 IU/L
AST [2]: 83 IU/L
BUN [2]: 9 mg/dL
CRE [2]: 0.2 mg/dL
DBIL [2]: 0.006 mg/dL
GLC [2]: 182.6 mg/dL
IP [2]: 9.5 mg/dL
K [2]: 4.3 meq/L
PL [2]: 140.8 mg/dL
RALB [2]: 2.4 g/dL
TBIL [2]: 0.048 mg/dL
TC [2]: 77 mg/dL
TG [2]: 41.2 mg/dL
TP [2]: 5.2 g/dL
gamma-GTP [2]: 1.4 IU/L
Bas [3]: 0.4%
Eos [3]: 0.8%
Fbg [3]: 268.2 mg/dL
Ht [3]: 40.1%
MCHC [3]: 32.4%
Mono [3]: 3%
RBC [3]: 599.2 x10_4/ul
Ret [3]: 9.6%
KIDNEY_L [4]: 0.8 g
KIDNEY_R [4]: 0.8 g
KIDNEY_TOTAL [4]: 1.5 g
LIVER [4]: 7.2 g
ALP [4]: 1534.8 IU/L
ALT [4]: 41.8 IU/L
AST [4]: 81.8 IU/L
BUN [4]: 9.6 mg/dL
CRE [4]: 0.2 mg/dL
DBIL [4]: 0.008 mg/dL
GLC [4]: 173.8 mg/dL
IP [4]: 9.7 mg/dL
K [4]: 4.1 meq/L
PL [4]: 142.6 mg/dL
RALB [4]: 2.5 g/dL
TBIL [4]: 0.056 mg/dL
TC [4]: 82.4 mg/dL
TG [4]: 44.6 mg/dL
TP [4]: 5.4 g/dL
gamma-GTP [4]: 1 IU/L
Bas [5]: 0%
Eos [5]: 1%
Fbg [5]: 292.6 mg/dL
Ht [5]: 39.3%
MCHC [5]: 32.3%
Mono [5]: 2.4%
RBC [5]: 584.2 x10_4/ul
Ret [5]: 9.6%
KIDNEY_L [6]: 0.8 g
KIDNEY_R [6]: 0.8 g
KIDNEY_TOTAL [6]: 1.5 g
LIVER [6]: 6.9 g
ALP [6]: 1454.2 IU/L
ALT [6]: 38.6 IU/L
AST [6]: 75.8 IU/L
BUN [6]: 8.4 mg/dL
CRE [6]: 0.2 mg/dL
DBIL [6]: 0.008 mg/dL
GLC [6]: 178.8 mg/dL
IP [6]: 9.5 mg/dL
K [6]: 4 meq/L
PL [6]: 145.8 mg/dL
RALB [6]: 2.4 g/dL
TBIL [6]: 0.058 mg/dL
TC [6]: 83.2 mg/dL
TG [6]: 38.6 mg/dL
TP [6]: 5.2 g/dL
gamma-GTP [6]: 1 IU/L
Bas [7]: 0.2%
Eos [7]: 1%
Fbg [7]: 281.4 mg/dL
Ht [7]: 39.1%
MCHC [7]: 32.7%
Mono [7]: 3%
RBC [7]: 590.8 x10_4/ul
Ret [7]: 9.3%
KIDNEY_L [8]: 0.9 g
KIDNEY_R [8]: 0.8 g
KIDNEY_TOTAL [8]: 1.7 g
LIVER [8]: 9.1 g
ALT [8]: 50.4 IU/L
AST [8]: 77.6 IU/L
CRE [8]: 0.2 mg/dL
DBIL [8]: 0.012 mg/dL
GLC [8]: 186.2 mg/dL
IP [8]: 8.5 mg/dL
K [8]: 4.4 meq/L
PL [8]: 153.6 mg/dL
RALB [8]: 2.6 g/dL
TBIL [8]: 0.04 mg/dL
TC [8]: 82.8 mg/dL
TG [8]: 65 mg/dL
TP [8]: 5.6 g/dL
gamma-GTP [8]: 0.8 IU/L
Bas [9]: 0.2%
Eos [9]: 0.6%
Fbg [9]: 280.8 mg/dL
Ht [9]: 40.3%
MCHC [9]: 32.3%
Mono [9]: 3.6%
RBC [9]: 603 x10_4/ul
Ret [9]: 10.2%
KIDNEY_L (10 mg/kg, 3 h, dose level Low): 0.8 g
KIDNEY_R (10 mg/kg, 3 h, dose level Low): 0.8 g
KIDNEY_TOTAL (10 mg/kg, 3 h, dose level Low): 1.6 g
LIVER (10 mg/kg, 3 h, dose level Low): 7.8 g
ALP (10 mg/kg, 3 h, dose level Low): 1472.8 IU/L
ALT (10 mg/kg, 3 h, dose level Low): 49.4 IU/L
AST (10 mg/kg, 3 h, dose level Low): 83.6 IU/L
BUN (10 mg/kg, 3 h, dose level Low): 9.8 mg/dL
CRE (10 mg/kg, 3 h, dose level Low): 0.2 mg/dL
DBIL (10 mg/kg, 3 h, dose level Low): 0.01 mg/dL
GLC (10 mg/kg, 3 h, dose level Low): 178.4 mg/dL
IP (10 mg/kg, 3 h, dose level Low): 10 mg/dL
K (10 mg/kg, 3 h, dose level Low): 4.2 meq/L
PL (10 mg/kg, 3 h, dose level Low): 140.8 mg/dL
RALB (10 mg/kg, 3 h, dose level Low): 2.4 g/dL
TBIL (10 mg/kg, 3 h, dose level Low): 0.058 mg/dL
TC (10 mg/kg, 3 h, dose level Low): 80.4 mg/dL
TG (10 mg/kg, 3 h, dose level Low): 43 mg/dL
TP (10 mg/kg, 3 h, dose level Low): 5.2 g/dL
gamma-GTP (10 mg/kg, 3 h, dose level Low): 1.4 IU/L
Bas [10]: 0%
Eos [10]: 0.8%
Fbg [10]: 283 mg/dL
Ht [10]: 39.7%
Lym [10]: 69.4%
MCHC [10]: 32%
Mono [10]: 2.6%
RBC [10]: 572.6 x10_4/ul
Ret [10]: 11.1%
KIDNEY_L (10 mg/kg, 6 h, dose level Low): 0.8 g
KIDNEY_R (10 mg/kg, 6 h, dose level Low): 0.8 g
KIDNEY_TOTAL (10 mg/kg, 6 h, dose level Low): 1.6 g
LIVER (10 mg/kg, 6 h, dose level Low): 7.8 g
ALP (10 mg/kg, 6 h, dose level Low): 1504.8 IU/L
ALT (10 mg/kg, 6 h, dose level Low): 43.4 IU/L
AST (10 mg/kg, 6 h, dose level Low): 77.2 IU/L
BUN (10 mg/kg, 6 h, dose level Low): 8.8 mg/dL
CRE (10 mg/kg, 6 h, dose level Low): 0.2 mg/dL
DBIL (10 mg/kg, 6 h, dose level Low): 0.01 mg/dL
GLC (10 mg/kg, 6 h, dose level Low): 180.2 mg/dL
IP (10 mg/kg, 6 h, dose level Low): 10.2 mg/dL
K (10 mg/kg, 6 h, dose level Low): 4.2 meq/L
PL (10 mg/kg, 6 h, dose level Low): 128 mg/dL
RALB (10 mg/kg, 6 h, dose level Low): 2.5 g/dL
TBIL (10 mg/kg, 6 h, dose level Low): 0.056 mg/dL
TC (10 mg/kg, 6 h, dose level Low): 71.6 mg/dL
TG (10 mg/kg, 6 h, dose level Low): 36.8 mg/dL
TP (10 mg/kg, 6 h, dose level Low): 5.4 g/dL
gamma-GTP (10 mg/kg, 6 h, dose level Low): 1.4 IU/L
Bas [11]: 0%
Eos [11]: 1%
Fbg [11]: 283 mg/dL
Ht [11]: 39.6%
MCHC [11]: 32.4%
Mono [11]: 1.4%
RBC [11]: 608.4 x10_4/ul
Ret [11]: 9.5%
KIDNEY_L (10 mg/kg, 9 h, dose level Low): 0.8 g
KIDNEY_R (10 mg/kg, 9 h, dose level Low): 0.8 g
KIDNEY_TOTAL (10 mg/kg, 9 h, dose level Low): 1.6 g
LIVER (10 mg/kg, 9 h, dose level Low): 7 g
ALP (10 mg/kg, 9 h, dose level Low): 1360.4 IU/L
ALT (10 mg/kg, 9 h, dose level Low): 42.4 IU/L
AST (10 mg/kg, 9 h, dose level Low): 77.4 IU/L
BUN (10 mg/kg, 9 h, dose level Low): 7.4 mg/dL
CRE (10 mg/kg, 9 h, dose level Low): 0.1 mg/dL
DBIL (10 mg/kg, 9 h, dose level Low): 0.01 mg/dL
GLC (10 mg/kg, 9 h, dose level Low): 175.2 mg/dL
IP (10 mg/kg, 9 h, dose level Low): 9.8 mg/dL
K (10 mg/kg, 9 h, dose level Low): 3.9 meq/L
PL (10 mg/kg, 9 h, dose level Low): 124 mg/dL
RALB (10 mg/kg, 9 h, dose level Low): 2.4 g/dL
TBIL (10 mg/kg, 9 h, dose level Low): 0.054 mg/dL
TC (10 mg/kg, 9 h, dose level Low): 70.8 mg/dL
TG (10 mg/kg, 9 h, dose level Low): 31.2 mg/dL
TP (10 mg/kg, 9 h, dose level Low): 5.2 g/dL
gamma-GTP (10 mg/kg, 9 h, dose level Low): 0.8 IU/L
Bas [12]: 0%
Eos [12]: 1%
Fbg [12]: 270 mg/dL
Ht [12]: 38.6%
MCHC [12]: 32.4%
Mono [12]: 3.8%
RBC [12]: 590.4 x10_4/ul
Ret [12]: 8.6%
KIDNEY_L (10 mg/kg, 24 h, dose level Low): 0.8 g
KIDNEY_R (10 mg/kg, 24 h, dose level Low): 0.8 g
KIDNEY_TOTAL (10 mg/kg, 24 h, dose level Low): 1.6 g
LIVER (10 mg/kg, 24 h, dose level Low): 9.2 g
ALP (10 mg/kg, 24 h, dose level Low): 1838.8 IU/L
ALT (10 mg/kg, 24 h, dose level Low): 49.2 IU/L
AST (10 mg/kg, 24 h, dose level Low): 76.8 IU/L
BUN (10 mg/kg, 24 h, dose level Low): 14.2 mg/dL
CRE (10 mg/kg, 24 h, dose level Low): 0.2 mg/dL
DBIL (10 mg/kg, 24 h, dose level Low): 0.012 mg/dL
GLC (10 mg/kg, 24 h, dose level Low): 179.6 mg/dL
IP (10 mg/kg, 24 h, dose level Low): 8.6 mg/dL
K (10 mg/kg, 24 h, dose level Low): 4.3 meq/L
PL (10 mg/kg, 24 h, dose level Low): 133.2 mg/dL
RALB (10 mg/kg, 24 h, dose level Low): 2.6 g/dL
TBIL (10 mg/kg, 24 h, dose level Low): 0.04 mg/dL
TC (10 mg/kg, 24 h, dose level Low): 68.8 mg/dL
TG (10 mg/kg, 24 h, dose level Low): 54 mg/dL
TP (10 mg/kg, 24 h, dose level Low): 5.4 g/dL
gamma-GTP (10 mg/kg, 24 h, dose level Low): 1.2 IU/L
